Experimental data published in the NIST ThermoML archive (doi:10.1016/j.jct.2014.05.001).
Numbers after ± are expanded uncertainties.

Settings: Ring tensiometer

surface tension liquid-gas (298.15 K): 72 ± 0.9 mN/m
surface tension liquid-gas (303.15 K): 71.1 ± 0.9 mN/m
surface tension liquid-gas (308.15 K): 70.3 ± 0.9 mN/m
surface tension liquid-gas (313.15 K): 69.4 ± 0.9 mN/m
SMILES: O [water]
